This is an account of results in patent publication US20250353891A1 (MEDIMMUNE LIMITED, priority 2022, published 2025).

For experiment [1], the target named is human GLP-1 receptor (hGLP-1R) (Homo sapiens, UniProt P43220). Briefly: cAMP production (HTRF) in CHO cells expressing hGLP-1R. The format is cell-based. Further details: expressed in transfected cells. The settings on record: for EC50: Table 6, peptides modified at position 17, cAMP in CHO hGLP-1R cells, geometric mean, read-out: hGLP-1R EC50; for % Relative Potency Ratio: Table 6, % GLP-1R activity relative to GLP-1 / % GlucR activity relative to glucagon. The procedure, abridged: (§1)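 Potency values represent EC50 from 4-parameter logistic curves of HTRF % Delta F signal. Receptor-expressing CHO cells (hGCGR 2×10^5 cells/mL, hGLP-1R 1×10^5 cells/mL) were exposed for 30 min at room temperature before two-step cAMP detection.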
For orientation: Cyclic AMP is a second messenger, typically raised through Gs and lowered through Gi signalling.

The target of experiment [2] is human glucagon receptor (hGCGR) (Homo sapiens, UniProt P47871). Put plainly: cAMP production (HTRF) in CHO cells expressing hGCGR. The format is cell-based. Further details: expressed in transfected cells. Particulars: Table 6, peptides modified at position 17; cAMP in CHO hGCGR cells; geometric mean; read-out: hGluc-R EC50. The procedure, abridged:
as §1

Structures are written as SMILES. Starred links: 1 amine or outer side, 2 acyl side, 3 side chain; linkers in the order of their positions; H or OH if unused. Non-standard residues stand in square brackets, D forms with d. Residues, ends and D or L forms follow the SMILES beside them. Groups on a side chain read outwards from the residue. *: point of attachment. C20 diacid = O=C(O)CCCCCCCCCCCCCCCCCCC(=O)*; C18 diacid = O=C(O)CCCCCCCCCCCCCCCCC(=O)*; γGlu = O=C(O)[C@H](CCC(=O)[*:2])N[*:1]; αMeF = C[C@](N)(Cc1ccccc1)C(=O)O; AEEA = NCCOCCOCC(=O)O; Aib = CC(C)(N)C(=O)O

Chain of human glucagon receptor (hGCGR) (P47871 26-477): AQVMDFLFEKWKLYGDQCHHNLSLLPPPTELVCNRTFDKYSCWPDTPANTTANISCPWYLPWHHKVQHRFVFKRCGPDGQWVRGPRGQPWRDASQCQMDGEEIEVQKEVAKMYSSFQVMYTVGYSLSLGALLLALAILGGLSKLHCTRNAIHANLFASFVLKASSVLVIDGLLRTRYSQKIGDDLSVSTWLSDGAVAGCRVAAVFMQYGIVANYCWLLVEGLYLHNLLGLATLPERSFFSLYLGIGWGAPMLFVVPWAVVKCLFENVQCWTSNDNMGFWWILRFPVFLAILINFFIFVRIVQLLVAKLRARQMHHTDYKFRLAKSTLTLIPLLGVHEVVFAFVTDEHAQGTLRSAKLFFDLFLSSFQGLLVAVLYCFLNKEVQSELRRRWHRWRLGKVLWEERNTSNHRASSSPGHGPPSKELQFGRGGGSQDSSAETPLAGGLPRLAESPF
Chain of human GLP-1 receptor (hGLP-1R) (P43220 24-463): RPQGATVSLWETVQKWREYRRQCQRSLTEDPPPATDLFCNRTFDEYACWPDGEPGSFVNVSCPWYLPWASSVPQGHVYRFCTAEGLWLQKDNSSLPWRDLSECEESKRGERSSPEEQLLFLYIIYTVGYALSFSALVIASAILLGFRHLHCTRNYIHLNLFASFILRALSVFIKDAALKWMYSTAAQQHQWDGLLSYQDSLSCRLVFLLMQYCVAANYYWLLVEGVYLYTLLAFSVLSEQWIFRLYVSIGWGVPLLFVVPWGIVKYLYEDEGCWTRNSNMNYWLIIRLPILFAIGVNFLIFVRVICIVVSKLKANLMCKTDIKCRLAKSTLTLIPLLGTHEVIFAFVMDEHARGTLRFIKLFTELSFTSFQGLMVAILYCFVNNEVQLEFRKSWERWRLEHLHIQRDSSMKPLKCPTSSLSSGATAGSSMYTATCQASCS

As for `CC[C@H](C)[C@H](NC(=O)C(C)(C)NC(=O)[C@H](CCC(N)=O)NC(=O)[C@@H](NC(=O)[C@](C)(Cc1ccccc1)NC(=O)[C@H](CC(=O)O)NC(=O)[C@H](CCC(N)=O)NC(=O)[C@H](C)NC(=O)[C@H](C)NC(=O)[C@H](CCCCNC(=O)COCCOCCNC(=O)COCCOCCNC(=O)CC[C@H](NC(=O)CC[C@H](NC(=O)CCCCCCCCCCCCCCCCCCC(=O)O)C(=O)O)C(=O)O)NC(=O)[C@H](CO)NC(=O)[C@H](CC(=O)O)NC(=O)[C@H](CC(C)C)NC(=O)[C@](C)(Cc1ccccc1)NC(=O)[C@H](CCCCN)NC(=O)[C@H](CO)NC(=O)[C@@H](NC(=O)[C@H](CC(=O)O)NC(=O)[C@H](CO)NC(=O)[C@@H](NC(=O)[C@](C)(Cc1ccccc1)NC(=O)[C@H](CO)NC(=O)CNC(=O)[C@H](Cc1c[nH]cn1)NC(=O)C(C)(C)NC(=O)[C@@H](N)Cc1c[nH]cn1)[C@@H](C)O)C(C)C)C(C)C)C(=O)N[C@@H](C)C(=O)N[C@@H](CC(N)=O)C(=O)N[C@H](C(N)=O)[C@@H](C)O` [Peptide 25] (H-H[Aib]HGS[αMeF]TSDVSK[αMeF]LDSK([AEEA-AEEA-γGlu-γGlu-C20 diacid])AAQD[αMeF]VQ[Aib]IANT-NH2), in experiment [1], the concentration for a half-maximal effect (EC50) stood at 0.726 nM and the “% Relative Potency Ratio” value came out at 3.6. The EC50 in experiment [2] stood at 1.31 nM.

In the case of `CC[C@H](C)[C@H](NC(=O)[C@H](Cc1c[nH]c2ccccc12)NC(=O)[C@H](CCC(N)=O)NC(=O)[C@@H](NC(=O)[C@](C)(Cc1ccccc1)NC(=O)[C@H](CC(=O)O)NC(=O)[C@H](CCC(N)=O)NC(=O)[C@H](C)NC(=O)[C@H](C)NC(=O)[C@H](CCCCNC(=O)COCCOCCNC(=O)COCCOCCNC(=O)CC[C@H](NC(=O)CCCCCCCCCCCCCCCCC(=O)O)C(=O)O)NC(=O)[C@H](CO)NC(=O)[C@H](CC(=O)O)NC(=O)[C@H](CC(C)C)NC(=O)[C@](C)(Cc1ccccc1)NC(=O)[C@H](CCCCN)NC(=O)[C@H](CO)NC(=O)[C@@H](NC(=O)[C@H](CC(=O)O)NC(=O)[C@H](CO)NC(=O)[C@@H](NC(=O)[C@](C)(Cc1ccccc1)NC(=O)[C@H](CO)NC(=O)CNC(=O)[C@H](CCC(N)=O)NC(=O)C(C)(C)NC(=O)[C@@H](N)Cc1c[nH]cn1)[C@@H](C)O)C(C)C)C(C)C)C(=O)N[C@@H](C)C(=O)N[C@@H](CC(N)=O)C(N)=O` [Peptide 26] (H-H[Aib]QGS[αMeF]TSDVSK[αMeF]LDSK([AEEA-AEEA-γGlu-C18 diacid])AAQD[αMeF]VQWIAN-NH2), in experiment [1], the 50% effective concentration (EC50) was found to be 0.0806 nM and the “% Relative Potency Ratio” value turned out to be 218.5. Besides, in experiment [2], the concentration giving a half-maximal response (EC50) was 8.9 nM.

For the compound `CC[C@H](C)[C@H](NC(=O)[C@H](Cc1c[nH]c2ccccc12)NC(=O)[C@H](CCC(=O)O)NC(=O)[C@@H](NC(=O)[C@](C)(Cc1ccccc1)NC(=O)[C@H](CC(=O)O)NC(=O)[C@H](CCC(N)=O)NC(=O)[C@H](C)NC(=O)[C@H](C)NC(=O)[C@H](CCCCNC(=O)COCCOCCNC(=O)COCCOCCNC(=O)CC[C@H](NC(=O)CCCCCCCCCCCCCCCCC(=O)O)C(=O)O)NC(=O)[C@H](CO)NC(=O)[C@H](CC(=O)O)NC(=O)[C@H](CC(C)C)NC(=O)[C@](C)(Cc1ccccc1)NC(=O)[C@H](CCCCN)NC(=O)[C@H](CO)NC(=O)[C@@H](NC(=O)[C@H](CC(=O)O)NC(=O)[C@H](CO)NC(=O)[C@@H](NC(=O)[C@](C)(Cc1ccccc1)NC(=O)[C@H](CO)NC(=O)CNC(=O)[C@H](CCC(N)=O)NC(=O)C(C)(C)NC(=O)[C@@H](N)Cc1c[nH]cn1)[C@@H](C)O)C(C)C)C(C)C)C(=O)N[C@@H](C)C(=O)N[C@@H](CC(N)=O)C(N)=O` [Peptide 27] (H-H[Aib]QGS[αMeF]TSDVSK[αMeF]LDSK([AEEA-AEEA-γGlu-C18 diacid])AAQD[αMeF]VEWIAN-NH2; N-terminus assumed), in experiment [1], the EC50 is 0.0182 nM and the “% Relative Potency Ratio” value was determined as 156.4. Also, the EC50 in experiment [2] amounted to 1.44 nM.

Take `CC(C)C[C@H](NC(=O)[C@H](Cc1c[nH]c2ccccc12)NC(=O)[C@H](CCCNC(=N)N)NC(=O)[C@@H](NC(=O)[C@H](Cc1ccccc1)NC(=O)[C@H](CC(=O)O)NC(=O)[C@H](CCC(N)=O)NC(=O)[C@H](C)NC(=O)[C@H](CCCNC(=N)N)NC(=O)[C@H](CCCCNC(=O)COCCOCCNC(=O)COCCOCCNC(=O)CC[C@H](NC(=O)CCCCCCCCCCCCCCCCC(=O)O)C(=O)O)NC(=O)[C@H](CO)NC(=O)[C@H](CC(=O)O)NC(=O)[C@H](CC(C)C)NC(=O)[C@](C)(Cc1ccccc1)NC(=O)[C@H](CCCCN)NC(=O)[C@H](CO)NC(=O)[C@@H](NC(=O)[C@H](CC(=O)O)NC(=O)[C@H](CO)NC(=O)[C@@H](NC(=O)[C@H](Cc1ccccc1)NC(=O)[C@@H](NC(=O)CNC(=O)[C@H](CCC(N)=O)NC(=O)C(C)(C)NC(=O)[C@@H](N)Cc1c[nH]cn1)[C@@H](C)O)[C@@H](C)O)C(C)C)C(C)C)C(=O)N[C@@H](CC(C)C)C(=O)NC(C)(C)C(=O)N[C@H](C(=O)O)[C@@H](C)O` [Peptide 28] (H-H[Aib]QGTFTSDVSK[αMeF]LDSK([AEEA-AEEA-γGlu-C18 diacid])RAQDFVRWLL[Aib]T-OH): in experiment [1], the EC50 was determined as 0.129 nM and the “% Relative Potency Ratio” value is 4.0. In addition, the EC50 in experiment [2] is 0.26 nM.

For `CC(C)C[C@H](NC(=O)[C@H](Cc1c[nH]c2ccccc12)NC(=O)[C@H](CCC(N)=O)NC(=O)[C@@H](NC(=O)[C@H](Cc1ccccc1)NC(=O)[C@H](CC(=O)O)NC(=O)C(C)(C)NC(=O)[C@H](C)NC(=O)[C@H](CCCNC(=N)N)NC(=O)[C@H](CCCCNC(=O)COCCOCCNC(=O)COCCOCCNC(=O)CC[C@H](NC(=O)CCCCCCCCCCCCCCCCC(=O)O)C(=O)O)NC(=O)[C@H](CO)NC(=O)[C@H](CC(=O)O)NC(=O)[C@H](CC(C)C)NC(=O)[C@](C)(Cc1ccccc1)NC(=O)[C@H](CCCCN)NC(=O)[C@H](CO)NC(=O)[C@@H](NC(=O)[C@H](CC(=O)O)NC(=O)[C@H](CO)NC(=O)[C@@H](NC(=O)[C@H](Cc1ccccc1)NC(=O)[C@@H](NC(=O)CNC(=O)[C@H](CCC(N)=O)NC(=O)C(C)(C)NC(=O)[C@@H](N)Cc1c[nH]cn1)[C@@H](C)O)[C@@H](C)O)C(C)C)C(C)C)C(=O)N[C@@H](CC(C)C)C(=O)NC(C)(C)C(=O)N[C@H](C(=O)O)[C@@H](C)O` [Peptide 29] (H-H[Aib]QGTFTSDVSK[αMeF]LDSK([AEEA-AEEA-γGlu-C18 diacid])RA[Aib]DFVQWLL[Aib]T-OH; N-terminus assumed), in experiment [1], the concentration for a half-maximal effect (EC50) is 0.107 nM and the “% Relative Potency Ratio” value is given as 11.7. Moreover, the concentration for a half-maximal effect (EC50) in experiment [2] came out at 0.629 nM.

For `CC(C)C[C@H](NC(=O)[C@H](Cc1c[nH]c2ccccc12)NC(=O)[C@H](CCCNC(=N)N)NC(=O)[C@@H](NC(=O)[C@H](Cc1ccccc1)NC(=O)[C@H](CC(=O)O)NC(=O)[C@H](CCC(N)=O)NC(=O)[C@H](C)NC(=O)[C@H](CCCNC(=N)N)NC(=O)[C@H](CCCCNC(=O)COCCOCCNC(=O)COCCOCCNC(=O)CC[C@H](NC(=O)CCCCCCCCCCCCCCCCC(=O)O)C(=O)O)NC(=O)[C@H](CO)NC(=O)[C@H](CC(=O)O)NC(=O)[C@H](CC(C)C)NC(=O)[C@](C)(Cc1ccccc1)NC(=O)[C@H](CCCCN)NC(=O)[C@H](CO)NC(=O)[C@@H](NC(=O)[C@H](CC(=O)O)NC(=O)[C@H](CO)NC(=O)[C@@H](NC(=O)[C@H](Cc1ccccc1)NC(=O)[C@@H](NC(=O)CNC(=O)[C@H](CCC(N)=O)NC(=O)C(C)(C)NC(=O)[C@@H](N)Cc1c[nH]cn1)[C@@H](C)O)[C@@H](C)O)C(C)C)C(C)C)C(=O)N[C@@H](CC(C)C)C(=O)NC(C)(C)C(=O)N[C@H](C(=O)NCC(=O)O)[C@@H](C)O` [Peptide 30] (H-H[Aib]QGTFTSDVSK[αMeF]LDSK([AEEA-AEEA-γGlu-C18 diacid])RAQDFVRWLL[Aib]TG-OH; N-terminus assumed), the results for the EC50 in experiment [1] and in experiment [2] were 0.0527 nM and 0.235 nM, respectively. Also, in experiment [1], the “% Relative Potency Ratio” value is recorded as 8.8.

As to `CC(C)C[C@H](NC(=O)[C@H](Cc1c[nH]c2ccccc12)NC(=O)[C@H](CCCNC(=N)N)NC(=O)[C@@H](NC(=O)[C@H](Cc1ccccc1)NC(=O)[C@H](CC(=O)O)NC(=O)[C@H](CCC(N)=O)NC(=O)[C@H](C)NC(=O)[C@H](CCCNC(=N)N)NC(=O)[C@H](CCCCNC(=O)COCCOCCNC(=O)COCCOCCNC(=O)CC[C@H](NC(=O)CCCCCCCCCCCCCCCCC(=O)O)C(=O)O)NC(=O)[C@H](CO)NC(=O)[C@H](CC(=O)O)NC(=O)[C@H](CC(C)C)NC(=O)[C@](C)(Cc1ccccc1)NC(=O)[C@H](CCCCN)NC(=O)[C@H](CO)NC(=O)[C@@H](NC(=O)[C@H](CC(=O)O)NC(=O)[C@H](CO)NC(=O)[C@@H](NC(=O)[C@H](Cc1ccccc1)NC(=O)[C@@H](NC(=O)CNC(=O)[C@H](CCC(N)=O)NC(=O)C(C)(C)NC(=O)[C@@H](N)Cc1c[nH]cn1)[C@@H](C)O)[C@@H](C)O)C(C)C)C(C)C)C(=O)N[C@@H](CC(C)C)C(=O)N[C@@H](CCC(=O)O)C(=O)NC(C)(C)C(=O)NCC(=O)O` [Peptide 31] (H-H[Aib]QGTFTSDVSK[αMeF]LDSK([AEEA-AEEA-γGlu-C18 diacid])RAQDFVRWLLE[Aib]G-OH; N-terminus assumed), in experiment [1], the EC50 was determined as 0.0413 nM and the “% Relative Potency Ratio” value was 2.7. The EC50 in experiment [2] is 0.0568 nM.

In general, EC50 refers to the concentration giving half of the maximal effect.
